Laboratory results: US9676789B2, “Aminated derivative of homoharringtonine, preparation method therefor, and application thereof” (HANGZHOU BENSHENG PHARMACEUTICAL CO., LTD., priority 2011, dated 2017)
Converted amounts (≈) assume the structure as drawn.

Legend:
[1] = tested on: SK-OV-3 (ovarian cancer cell); test: MTT solid tumor cell growth inhibition, 72 h; type: cell-based, human; settings: Homo sapiens, SK-OV-3, 72 h
Method in brief: (§1)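 Cells seeded at 4000 per well in DMEM high glucose with 10% FBS were grown 24 h at 37° C, 5% CO2, then exposed to homoharringtonine derivatives at various concentrations for 72 h. Viable cells were measured by MTT, and viability (%) was expressed relative to untreated controls set at 100%.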

[2] = tested on: U87 MG (malignant glioma cell); test: MTT solid tumor cell growth inhibition, 72 h; type: cell-based, human; settings: Homo sapiens, U-87 MG
Method in brief: as §1

[3] = tested on: CNE (nasopharyngeal carcinoma cell); test: MTT solid tumor cell growth inhibition, 72 h; type: cell-based, human; settings: Homo sapiens
Method in brief: as §1

[4] = tested on: PANC-1 (pancreatic cancer); test: MTT solid tumor cell growth inhibition, 72 h; type: cell-based, human; settings: Homo sapiens, PANC-1, 72 h
Method in brief: as §1

MG63 (osteosarcoma) = test: MTT solid tumor cell growth inhibition, 72 h; type: cell-based, human; settings: Homo sapiens, MG 63, 72 h
Method in brief: as §1

[5] = tested on: CaES-17 (esophageal cancer cell); test: MTT solid tumor cell growth inhibition, 72 h; type: cell-based, human; settings: Homo sapiens, CaEs17, CaES-17, 72 h
Method in brief: as §1

PC-3 (prostate cancer) = test: MTT solid tumor cell growth inhibition, 72 h; type: cell-based, human; settings: Homo sapiens, PC-3, 72 h
Method in brief: as §1

[6] = tested on: RPMI8226 (multiple myeloma); test: MTT multiple myeloma cell growth inhibition, 72 h; type: cell-based, human
Method in brief: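 RPMI8226 cells at 6000 per well in 1640 medium with 10% fetal bovine serum, exposed to homoharringtonine derivatives at various concentrations. Incubation 72 h at 37° C, 5% CO2; viable cells read by MTT.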

A549 (human lung cancer) = test: MTT solid tumor cell growth inhibition, 72 h; type: cell-based; settings: Homo sapiens, A549, 72 h
Method in brief: as §1

[7] = tested on: Hela (human cervical cancer cell); test: MTT solid tumor cell growth inhibition, 72 h; type: cell-based; settings: Homo sapiens, HeLa
Method in brief: as §1

[8] = tested on: Becap37 (human breast cancer cell); test: MTT solid tumor cell growth inhibition, 72 h; type: cell-based; settings: Homo sapiens, Becap37, 72 h
Method in brief: as §1

[9] = tested on: RKO (human colon adenocarcinoma cell); test: MTT solid tumor cell growth inhibition, 72 h; type: cell-based; settings: Homo sapiens
Method in brief: as §1

[10] = tested on: MGC 803 (human gastric cancer cell); test: MTT solid tumor cell growth inhibition, 72 h; type: cell-based; settings: Homo sapiens, MGC 803, 72 h
Method in brief: as §1

[11] = tested on: Hep-2 (human hepatocellular carcinoma); test: MTT solid tumor cell growth inhibition, 72 h; type: cell-based; settings: Homo sapiens, HEp-2, Hep2, 72 h
Method in brief: as §1

[12] = tested on: Huh7 (human liver cancer cell); test: MTT solid tumor cell growth inhibition, 72 h; type: cell-based; settings: Homo sapiens, Huh-7, Huh7, 72 h
Method in brief: as §1

[13] = tested on: A549, PANC-1, Becap37, MG63, Huh7, RKO, Hela, CaES-17, CNE, Hep-2, PC-3 and SK-OV-3; test: Anti-human solid tumor effect, summary over cell lines; type: cell-based; settings: result in words, summary of Table 2
Procedure: Human solid tumor cell lines: Hep-2 ([…]), A549 (human lung cancer), CaES-17 (esophageal cancer cell), PC-3 (prostate cancer), CNE (nasopharyngeal carcinoma cell), and SK-OV-3 (ovarian cancer cell), all of which are purchased from China Center For Type Culture Collection; RKO (human colon adenocarcinoma cell), MGC 803 (human gastric cancer cell), MG63 (osteosarcoma) and U87 MG (malignant glioma cell), all of which are purchased from Fuxiang Bio-tech Co. Ltd., Shanghai, China; PANC-1 (pancreatic cancer), Huh7 (human liver cancer cell), Becap37 (human breast cancer cell), and Hela (human cervical cancer cell), all of which are donated by Cancer Research Institute of Zhejiang University, China.
Obtaining 4000 well-growing human solid tumor cells and inoculating them into wells of a 96-well cell culture plate. The culture medium is DMEM High Glucose cell culture medium containing 10% fetal bovine serum. The plate is placed in a carbon dioxide cell incubator (5% CO2) at 37° C. and incubating for 24 hours. After adding the homoharringtonine derivatives of different concentration and mixing uniformly, the plate is placed in a carbon dioxide cell incubator (5% CO2) at 37° C. and incubating for 72 hours. Then the viable cell concentration is determined by the MTT method and the cell viability (%) after drug treatment is calculated. In this experiment, the cell viability of control group (not treated with any compound) is set as 100%.

[14] = tested on: K562/adr, NB4, Kasumi-1 and H9; test: Anti-leukemia activity, summary over cell lines; type: cell-based, human; settings: result in words, summary of Table 1
From the text: Leukemia cell lines: K562/adr (drug-resistant, chronic myeloid leukemia, CML), NB4 (acute promyelocytic leukemia, AML), Kasumi-1 (acute myeloid leukemia M2 type, AML-M2), Jurkat (acute lymphoblastic leukemia, ALL), all of which are donated by Cancer Research Institute of Zhejiang University, China; and H9 (acute lymphoblastic leukemia, ALL), which is purchased from China Center for Type Culture Collection.
Obtaining 6000 well-growing leukemia cells and inoculating them into wells of a 96-well cell culture plate. The culture medium is the 1640 cell culture medium containing 10% fetal bovine serum. After adding the homoharringtonine derivatives of different concentrations and mixing uniformly, placing the plate in a carbon dioxide cell incubator (5% CO2) at 37° C. and incubating for 72 hours. Then the viable cell concentration is determined by the MTT method. In this experiment, the cell viability in control group (not treated with any compound) is set as 100%.

[15] = tested on: H9 (acute lymphoblastic leukemia, ALL); test: MTT leukemia cell growth inhibition, 72 h; type: cell-based, human; settings: Homo sapiens, H9, 72 h
Method in brief: (§2)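 Cells were seeded at 6000 per well in RPMI-1640 with 10% FBS and exposed to homoharringtonine derivatives at various concentrations for 72 h at 37°C, 5% CO2. Viable cells were measured by MTT. Untreated controls were set as 100% viability.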

[16] = tested on: NB4 (acute promyelocytic leukemia, AML); test: MTT leukemia cell growth inhibition, 72 h; type: cell-based, human; settings: Homo sapiens, NB4, 72 h
Method in brief: as §2

[17] = tested on: Kasumi-1 (acute myeloid leukemia M2 type, AML-M2); test: MTT leukemia cell growth inhibition, 72 h; type: cell-based, human; settings: Homo sapiens, Kasumi-1, 72 h
Method in brief: as §2

[18] = tested on: K562/adr (drug-resistant, chronic myeloid leukemia, CML); test: MTT leukemia cell growth inhibition, 72 h; type: cell-based, human; settings: Homo sapiens, K562/Adr
Method in brief: as §2

[19] = tested on: Jurkat (acute lymphoblastic leukemia, ALL); test: MTT leukemia cell growth inhibition, 72 h; type: cell-based, human; settings: Homo sapiens
Method in brief: as §2

Work on `COC1=C[C@]23CCCN2CCc2cc4c(cc2[C@@H]3[C@@H]1OC(=O)[C@@](O)(CCCC(C)(C)O)CC(=O)NCc1ccc(C)o1)OCO4` [BS-HH-054, O-3-[(2R)-2,6-dihydroxy-2-(2′-(5-methyl)furan-2-methylamino-2′-oxoethyl)-6-methylheptanoyl]cephalotaxine] yielded an IC50 ([1]; read-out: IC50) of 0.47 µg/mL (≈ 0.752 µM), an IC90 ([1]; read-out: IC90) greater than 16 µg/mL and an IC50 ([2]; read-out: IC50) of 0.32 µg/mL (≈ 0.512 µM). For the same compound, the IC90 ([2]; read-out: IC90) was 16 µg/mL (≈ 25.6 µM), the IC50 ([3]; read-out: IC50) was 0.15 µg/mL (≈ 0.24 µM) and the IC90 ([3]; read-out: IC90) was 16 µg/mL (≈ 25.6 µM). The IC50 ([4]; read-out: IC50) was 0.15 µg/mL (≈ 0.24 µM), the IC90 ([4]; read-out: IC90) was greater than 16 µg/mL and the IC50 (MG63 (osteosarcoma); read-out: IC50) was 0.12 µg/mL (≈ 0.192 µM). The IC90 (MG63 (osteosarcoma); read-out: IC90) was 8.07 µg/mL (≈ 12.9 µM), the IC50 ([5]; read-out: IC50) was 1.37 µg/mL (≈ 2.19 µM) and the IC90 ([5]; read-out: IC90) was greater than 16 µg/mL. It also gave an IC50 (PC-3 (prostate cancer); read-out: IC50) of 0.46 µg/mL (≈ 0.736 µM), an IC90 (PC-3 (prostate cancer); read-out: IC90) greater than 16 µg/mL and an IC50 ([6]; Homo sapiens, RPMI-8226, RPMI8226, 72 h, read-out: IC50) of 0.092 µg/mL (≈ 0.147 µM). The IC90 ([6]; Homo sapiens, RPMI-8226, RPMI8226, 72 h, read-out: IC90) was 0.24 µg/mL (≈ 0.384 µM), the “anti-RPMI8226 (multiple myeloma) effect” value ([6]; result in words, summary of Table 2) was “strong” and the IC50 (A549 (human lung cancer); read-out: IC50) was 0.72 µg/mL (≈ 1.15 µM). For the same compound, the IC90 (A549 (human lung cancer); read-out: IC90) was greater than 16 µg/mL, the IC50 ([7]; read-out: IC50) was 0.3 µg/mL (≈ 0.48 µM) and the IC90 ([7]; read-out: IC90) was greater than 16 µg/mL. It also gave an IC50 ([8]; read-out: IC50) of 0.14 µg/mL (≈ 0.224 µM), an IC90 ([8]; read-out: IC90) of 16 µg/mL (≈ 25.6 µM) and an IC50 ([9]; read-out: IC50) of 2.75 µg/mL (≈ 4.4 µM). For the same compound, the IC90 ([9]; read-out: IC90) was 6.97 µg/mL (≈ 11.2 µM), the IC50 ([10]; read-out: IC50) was 0.15 µg/mL (≈ 0.24 µM) and the IC90 ([10]; read-out: IC90) was 6 µg/mL (≈ 9.6 µM). For the same compound, the IC50 ([11]; read-out: IC50) was 0.23 µg/mL (≈ 0.368 µM), the IC90 ([11]; read-out: IC90) was greater than 16 µg/mL and the IC50 ([12]; read-out: IC50) was 0.12 µg/mL (≈ 0.192 µM). The IC90 ([12]; read-out: IC90) was 16 µg/mL (≈ 25.6 µM), the “anti-A549, anti-PANC-1, anti-Becap37, anti-MG63, anti-Huh7, anti-RKO, anti-Hela, anti-CaES-17, anti-CNE, anti-Hep-2, anti-PC-3 and anti-SK-OV-3 effect” value [13] was “strong” and the “anti-K562/adr, anti-NB4, anti-Kasumi-1 and anti-H9 activity” value [14] was “strong”. It also gave an IC50 ([15]; read-out: IC50) of 0.17 µg/mL (≈ 0.272 µM), an IC90 ([15]; read-out: IC90) of 0.43 µg/mL (≈ 0.688 µM) and an IC50 ([16]; read-out: IC50) of 0.09 µg/mL (≈ 0.144 µM). The IC90 ([16]; read-out: IC90) was 0.2 µg/mL (≈ 0.32 µM), the IC50 ([17]; read-out: IC50) was 0.053 µg/mL (≈ 0.0848 µM) and the IC90 ([17]; read-out: IC90) was 0.19 µg/mL (≈ 0.304 µM). The IC50 ([18]; read-out: IC50) was 0.66 µg/mL (≈ 1.06 µM), the IC90 ([18]; read-out: IC90) was 4.4 µg/mL (≈ 7.04 µM) and the IC50 ([19]; read-out: IC50) was 0.11 µg/mL (≈ 0.176 µM). It also gave an IC90 ([19]; read-out: IC90) of 16 µg/mL (≈ 25.6 µM).
